From patent publication US10117821B2, “Topical lightening composition and methods of use thereof” (Avon Products, Inc., priority 2013, dated 2018)
Marks after values point to notes of the source that are not given here.

Legend:
B16 mouse melanoma cells = experiment: Melanin synthesis in B16 melanoma cell assay, normalized to MTT cell viability; format: cell-based; details: 7 days, vs water vehicle control, 6 replicates
Procedure: The effects of 3,3′-thiodipropanoic acid and Kojic acid on melanin levels were determined by performing assays using B16 melanoma cells. These cells are known to constitutively produce melanin and are a commonly utilized and accepted model system for monitoring the inhibition of melanin synthesis.
The B16 mouse melanoma cells were seeded (ATCC, cat. #: CRL-6475) into 96-well tissue culture-treated plates (BD Falcon) and treated with test actives or controls in DMEM without phenol red (Mediatech; cat. #: 17-205-CV). The cells were examined for their ability to modulate pigment formation. […] Tests were performed in 6 replicates each. Following the treatment period, the level of pigment produced or melanin synthesized was quantified by reading the absorbance at 540 nm using a standard microplate reader (Tecan Group Ltd.).
After quantifying the amount of melanin, cell viability was determined using the MTT conversion method. […] After quantifying the amount of melanin pigment produced, the cells were exposed to MTT dye solution (1 mg/ml) for two to three hours. […] MTT dye uptake and conversion by viable cells were determined by measuring the extracted formazan at 570 nm using a microplate reader. Total pigmentation was calculated, normalized to cell viability values and expressed as the average percent change in melanin level relative to control of sextuplicates performed.

[1] = system: MELANODERM™ (MEL-300-B) human skin model; experiment: Melanin levels in MELANODERM 3D human skin model; format: cell-based; details: vs water vehicle control
Procedure: The effect of 3,3′-thiodipropanoic acid or Thiodipropionic acid (TDPA) and Nicotinamide on melanin levels was investigated using a MELANODERM™ (MEL-300-B, MatTek Corp., Ashland, Mass.) human skin model. MELANODERM™ is a viable reconstituted three-dimensional human skin equivalent containing melanocytes derived from African-American donors. Tissues were maintained in culture medium EPI-100-NMM-113 at 37° C. as recommended by the manufacturer.
TDPA was dissolved in water to a final concentration of 1.0% (w/v). Nicotinamide was dissolved in the culture media to a final concentration of 0.1% (w/v). 25 μl of the TDPA solution was applied topically to the MELANODERM™ tissue while 0.1% Nicotinamide containing culture medium was added on days 1, 2, 4, 7, 9, and 11. Control tissues were treated with water vehicle only. The tissue was treated with both active lightening agents at “saturated concentration,” which is the highest concentration of treatment that is not toxic to the system.
On Day 14, tissues were collected and homogenized in a buffer containing 1% SDS, 50 mM EDTA, and 10 mM Tris, pH 6.8. To each homogenate, protease K (5 mg/ml) was added and incubated overnight at 45° C. Additional protease K was added and incubated for 4 hours at 45° C., followed by the addition of 0.5M sodium carbonate and 30% H2O2 and incubation at 80° C. for 30 minutes. The samples were cooled down to room temperature, and extracted with chloroform/methanol (2:1). After centrifugation at 10,000 g for 10 minutes, absorbance of the top phase was measured at 450 nm. Percent change in melanin levels in treated tissue was calculated relative to control.
The effect of TDPA and Soybean Trypsin Inhibitor (STI) on melanin levels was investigated using the MELANODERM™ human skin model according to the methods described in Example 1.

Q: Which results are given for O=C(O)CCSCCC(=O)O [TDPA, 3,3′-thiodipropionic acid]?
A: % CHANGE IN MELANIN (B16 mouse melanoma cells; 0.1% final concentration): −27.4%*; % CHANGE IN MELANIN ([1]; Example 1, 1% (w/v) in water, 25 μl topical, Day 14, average of three tissues): −10%*; % CHANGE IN MELANIN ([1]; Example 3, 1%, methods of Example 1): −9.1%

Q: Which “% CHANGE IN MELANIN” value ([1]; Example 1, 0.1% (w/v) in culture medium, Day 14, average of three tissues) does the source give for NC(=O)c1cccnc1 [Nicotinamide, nicotinamide (3-pyridinecarboxamide), reference compound] here?
A: −16%*

Q: Which “% CHANGE IN MELANIN” value (B16 mouse melanoma cells; 0.01% final concentration) does the source give for O=c1cc(CO)occ1O [Kojic Acid, Kojic acid (5-hydroxy-4-pyran-4-one-2-methyl), reference compound] here?
A: −47.6%*

B1: STI: Soybean Trypsin Inhibitor (STI), a known melanosome transfer inhibitor (protein, UniProt P01070 25-205, looked up)
Trypsin inhibitor A: DFVLDNEGNPLENGGTYYILSDITAFGGIRAAPTGNERCPLTVVQSRNELDKGIGTIISSPYRIRFIAEGHPLSLKFDSFAVIMLCVGIPTEWSVVEDLPEGPAVKIGENKDAMDGWFRLERVSDDEFNNYKLVFCPQQAEDDKCGDIGISIDHDDGTRRLVVSKNKPLVVQFQKLDKESL
Q: For B1, which “% CHANGE IN MELANIN” value ([1]; Example 3, 0.1%, methods of Example 1) is on record?
A: −8.9%
